From ChEMBL document CHEMBL4308841, “Synthesis, in vitro antiproliferative activity, and kinase inhibitory effects of pyrazole-containing diarylureas and diarylamides” (Eur J Med Chem, 2018)
pIC50: −log10 of the molar value.

Columns and labels:
TK-10 = assay: Growth inhibition of human TK10 cells assessed as cell growth at 10 uM incubated for 48 hrs by sulforhodamine B assay relative to control; type: functional; settings: TK-10, 48 h, read-out: Activity
HT-29 = assay: Growth inhibition of human HT-29 cells incubated for 48 hrs by sulforhodamine B assay; type: functional, cell-based; settings: HT-29, 48 h
LOX IMVI = assay: Growth inhibition of human LOXIMVI cells incubated for 48 hrs by sulforhodamine B assay; type: functional
MDA-MB-435 [1] = assay: Growth inhibition of human MDA-MB-435 cells incubated for 48 hrs by sulforhodamine B assay; type: functional, cell-based; settings: MDA-MB-435, 48 h
OVCAR-4 [2] = assay: Growth inhibition of human OVCAR4 cells incubated for 48 hrs by sulforhodamine B assay; type: functional, cell-based; settings: OVCAR-4, 48 h
OVCAR-5 = assay: Growth inhibition of human OVCAR5 cells incubated for 48 hrs by sulforhodamine B assay; type: functional, cell-based; settings: OVCAR-5, 48 h
786-0 = assay: Growth inhibition of human 786-0 cells incubated for 48 hrs by sulforhodamine B assay; type: functional, cell-based; settings: 786-0, 48 h
A498 = assay: Growth inhibition of human A498 cells incubated for 48 hrs by sulforhodamine B assay; type: functional, cell-based; settings: A498, 48 h
MDA-MB-468 = assay: Growth inhibition of human MDA-MB-468 cells incubated for 48 hrs by sulforhodamine B assay; type: functional, cell-based; settings: MDA-MB-468, 48 h
SR = assay: Growth inhibition of human SR cells assessed as cell growth at 0.01 uM incubated for 48 hrs by sulforhodamine B assay relative to control; type: functional; settings: read-out: Activity
SW-620 = assay: Growth inhibition of human SW620 cells assessed as cell growth at 0.01 uM incubated for 48 hrs by sulforhodamine B assay relative to control; type: functional; settings: SW-620, 48 h, read-out: Activity
SNB-19 = assay: Growth inhibition of human SNB19 cells assessed as cell growth at 0.01 uM incubated for 48 hrs by sulforhodamine B assay relative to control; type: functional; settings: SNB-19, 48 h, read-out: Activity
U-251 = assay: Growth inhibition of human U251 cells assessed as cell growth at 0.01 uM incubated for 48 hrs by sulforhodamine B assay relative to control; type: functional; settings: U-251, 48 h, read-out: Activity
OVCAR-4 [3] = assay: Growth inhibition of human OVCAR4 cells assessed as cell growth at 0.01 uM incubated for 48 hrs by sulforhodamine B assay relative to control; type: functional; settings: OVCAR-4, 48 h, read-out: Activity
T47D = assay: Growth inhibition of human T47D cells assessed as cell growth at 0.01 uM incubated for 48 hrs by sulforhodamine B assay relative to control; type: functional; settings: read-out: Activity
K562 = assay: Growth inhibition of human K562 cells assessed as cell growth at 0.1 uM incubated for 48 hrs by sulforhodamine B assay relative to control; type: functional; settings: K562, 48 h, read-out: Activity
M14 = assay: Growth inhibition of human M14 cells assessed as cell growth at 0.1 uM incubated for 48 hrs by sulforhodamine B assay relative to control; type: functional; settings: M14, 48 h, read-out: Activity
SK-MEL-2 = assay: Growth inhibition of human SK-MEL-2 cells assessed as cell growth at 0.1 uM incubated for 48 hrs by sulforhodamine B assay relative to control; type: functional; settings: SK-MEL-2, 48 h, read-out: Activity
OVCAR-8 = assay: Growth inhibition of human OVCAR8 cells assessed as cell growth at 0.1 uM incubated for 48 hrs by sulforhodamine B assay relative to control; type: functional; settings: OVCAR-8, 48 h, read-out: Activity
MOLT-4 = assay: Growth inhibition of human MOLT4 cells assessed as cell growth at 1 uM incubated for 48 hrs by sulforhodamine B assay relative to control; type: functional; settings: MOLT-4, 48 h, read-out: Activity
A549 = assay: Growth inhibition of human A549/ATCC cells assessed as cell growth at 1 uM incubated for 48 hrs by sulforhodamine B assay relative to control; type: functional; settings: A549, 48 h, read-out: Activity
NCI-H226 = assay: Growth inhibition of human NCI-H226 cells assessed as cell growth at 1 uM incubated for 48 hrs by sulforhodamine B assay relative to control; type: functional; settings: NCI-H226, 48 h, read-out: Activity
HCC 2998 = assay: Growth inhibition of human HCC2998 cells assessed as cell growth at 1 uM incubated for 48 hrs by sulforhodamine B assay relative to control; type: functional; settings: HCC 2998, 48 h, read-out: Activity
MDA-MB-435 [4] = assay: Growth inhibition of human MDA-MB-435 cells assessed as cell growth at 1 uM incubated for 48 hrs by sulforhodamine B assay relative to control; type: functional; settings: MDA-MB-435, 48 h, read-out: Activity
Hs-578T = assay: Growth inhibition of human Hs578T cells assessed as cell growth at 1 uM incubated for 48 hrs by sulforhodamine B assay relative to control; type: functional; settings: read-out: Activity
HCT-116 = assay: Growth inhibition of human HCT116 cells assessed as cell growth at 100 uM incubated for 48 hrs by sulforhodamine B assay relative to control; type: functional; settings: HCT-116, 48 h, read-out: Activity
HCT-15 = assay: Growth inhibition of human HCT15 cells assessed as cell growth at 100 uM incubated for 48 hrs by sulforhodamine B assay relative to control; type: functional; settings: HCT-15, 48 h, read-out: Activity
OVCAR-3 = assay: Growth inhibition of human OVCAR3 cells assessed as cell growth at 100 uM incubated for 48 hrs by sulforhodamine B assay relative to control; type: functional; settings: OVCAR-3, 48 h, read-out: Activity
[5] = read-out: LC50 (the source's name)
[6] = read-out: pLC50 (the source's name) (converted)

SMILES: COc1cc(Cl)cc(-c2nn(-c3cccc(NC(=O)Nc4ccc(Cl)c(C(F)(F)F)c4)c3)cc2-c2ccncc2)c1
- growth at 10 µM (TK-10): 37.5%
- GI50 (HT-29; read-out: GI50): 1.14 µM
- CC50 (HT-29; [5]): 3.52 µM
- TGI (HT-29; read-out: TGI): 43.8 µM
- GI50 (HT-29; read-out: pGI50 (converted)): 1.15 µM
- CC50 (HT-29; [6]): 38 µM
- TGI (HT-29; read-out: pTGI (converted)): 4.37 µM
- GI50 (LOX IMVI; read-out: GI50): 1.23 µM
- TGI (LOX IMVI; read-out: TGI): 31.4 µM
- GI50 (LOX IMVI; read-out: pGI50 (converted)): 1.23 µM
- GI50 (MDA-MB-435 [1]; read-out: GI50): 1.75 µM
- LC50 (MDA-MB-435 [1]; read-out: LC50): > 100 µM
- TGI (MDA-MB-435 [1]; read-out: TGI): 43.5 µM
- GI50 (MDA-MB-435 [1]; read-out: pGI50 (converted)): 1.74 µM
- LC50 (MDA-MB-435 [1]; read-out: pLC50 (converted)): > 100 µM
- TGI (MDA-MB-435 [1]; read-out: pTGI (converted)): 3.47 µM
- GI50 (OVCAR-4 [2]; read-out: GI50): 1.53 µM
- CC50 (OVCAR-4 [2]; [5]): > 100 µM
- TGI (OVCAR-4 [2]; read-out: TGI): 25.5 µM
- GI50 (OVCAR-4 [2]; read-out: pGI50 (converted)): 1.82 µM
- CC50 (OVCAR-4 [2]; [6]): > 100 µM
- TGI (OVCAR-4 [2]; read-out: pTGI (converted)): 2.63 µM
- GI50 (OVCAR-5; read-out: GI50): 2.13 µM
- CC50 (OVCAR-5; [5]): 3.01 µM
- TGI (OVCAR-5; read-out: TGI): 71.5 µM
- GI50 (OVCAR-5; read-out: pGI50 (converted)): 2.14 µM
- CC50 (OVCAR-5; [6]): 30.2 µM
- TGI (OVCAR-5; read-out: pTGI (converted)): 28.8 µM
- GI50 (786-0; read-out: GI50): 1.59 µM
- CC50 (786-0; [5]): 15.2 µM
- TGI (786-0; read-out: TGI): 42.7 µM
- GI50 (786-0; read-out: pGI50 (converted)): 1.58 µM
- CC50 (786-0; [6]): 15.1 µM
- TGI (786-0; read-out: pTGI (converted)): 9.77 µM
- GI50 (A498; read-out: GI50): 2.58 µM
- CC50 (A498; [5]): 57.6 µM
- TGI (A498; read-out: TGI): 14.4 µM
- GI50 (A498; read-out: pGI50 (converted)): 2.69 µM
- CC50 (A498; [6]): 57.5 µM
- TGI (A498; read-out: pTGI (converted)): 4.27 µM
- pIC50 (MDA-MB-468): 6.00
- GI50 (MDA-MB-468; read-out: GI50): 0.9 µM
- CC50 (MDA-MB-468; [5]): > 100 µM
- TGI (MDA-MB-468; read-out: TGI): 54.7 µM
- GI50 (MDA-MB-468; read-out: pGI50 (converted)): 1 µM
- CC50 (MDA-MB-468; [6]): > 100 µM
- TGI (MDA-MB-468; read-out: pTGI (converted)): 5.5 µM
- growth at 0.01 µM (SR): 95%
- growth at 0.01 µM (SW-620): 98%
- growth at 0.01 µM (SNB-19): 92%
- growth at 0.01 µM (U-251): 98%
- growth at 0.01 µM (OVCAR-4 [3]): 99%
- growth at 0.01 µM (T47D): 98%
- growth at 0.1 µM (K562): 91%
- growth at 0.1 µM (M14): 96%
- growth at 0.1 µM (SK-MEL-2): 52%
- growth at 0.1 µM (OVCAR-8): 96%
- growth at 1 µM (MOLT-4): 58%
- growth at 1 µM (A549): 40%
- growth at 1 µM (NCI-H226): 79%
- growth at 1 µM (HCC 2998): 97%
- growth at 1 µM (MDA-MB-435 [4]): 81%
- growth at 1 µM (Hs-578T): 89%
- growth at 100 µM (HCT-116): -94%
- growth at 100 µM (HCT-15): -90%
- growth at 100 µM (OVCAR-3): -56%
